Measurements from patent US9688684B2, “Substituted tetrazolo[1,5-a]pyrazines as ROR-gamma inhibitors” (Merck Patent GmbH, priority 2013, dated 2017).

Target: human RORγ ligand binding domain (GST-hRORγ-LBD) (Homo sapiens (Human), UniProt P51449)
Assay: TR-FRET assay (biochemical cofactor interaction assay, GST-hRORγ-LBD / TRAP220 peptide)
From the text: RORγ is an orphan member of the nuclear receptor (NR) family displaying constitutive activity. The activity of nuclear receptors can be modulated by ligand-induced cofactor protein interactions. For example, agonist binding leads to recruitment of coactivator protein, and antagonist binding either blocks coactivator interaction or facilitates the recruitment of corepressors. […] The conformational change induced by ligand binding influences interactions with LXXLL motif peptides.
RORγ (t) is a thymus-specific isoform of RORγ which is widely expressed. It shares the same ligand binding domain (LBD) sequence with RORγ. Thus, a screen using the LBD will yield antagonists targeting both RORγ and RORγt.
In order to identify compounds which block activity of the human nuclear receptor Retinoid-related Orphan Receptor gamma (RORγ) a biochemical cofactor interaction assay based on the TR-FRET principle is performed. […] The ligand-binding domain (LBD) of RORγ is expressed as fusion protein with GST in […] cells using the vector pDEST15. Cells are lysed by lysozyme-treatment and sonication, and the fusion proteins purified over glutathione sepharose (Pharmacia) according to the manufacturers instructions. The strong constitutive interaction is disrupted upon binding of functional antagonists. The strength of the interaction is monitored by TR-FRET between streptavidine APC interacting with the biotinylated peptide and Europium-labelled Anti-GST.

human RORγ ligand binding domain (GST-hRORγ-LBD), sequence (P51449 269-508): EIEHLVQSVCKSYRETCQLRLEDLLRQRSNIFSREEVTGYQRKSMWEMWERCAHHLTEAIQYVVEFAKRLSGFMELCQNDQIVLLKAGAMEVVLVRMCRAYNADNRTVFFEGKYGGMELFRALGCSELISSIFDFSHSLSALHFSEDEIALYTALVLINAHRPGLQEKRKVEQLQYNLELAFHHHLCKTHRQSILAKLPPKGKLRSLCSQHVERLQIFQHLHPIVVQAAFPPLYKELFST

| Compound | IC50 [µM] |
| --- | --- |
| 7-Benzyl-8-(4-ethyl-phenyl-1H-pyrazol-4-yl)-5,6,7,8-tetrahydro-tetrazolo[1,5-a]pyrazine [Compound 152] | 9.9 to 40 |
| Fc1ccc(CN2CCn3nnnc3C2c2cccc(F)c2)cc1 (single isomer, unassigned) [Compound 91-a, 7-(4-Fluoro-benzyl)-8-(3-fluoro-phenyl)-5,6,7,8-tetrahydro-tetrazolo[1,5-a]pyrazine] | 9.9 to 40 |
| Cc1cccc(CN2CCn3nnnc3C2c2ccc(F)cc2)c1 (single isomer, unassigned) [Compound 93-b, 8-(4-Fluoro-phenyl)-7-(3-methyl-benzyl)-5,6,7,8-tetrahydro-tetrazolo[1,5-a]pyrazine] | 9.9 to 40 |
| Fc1ccc(C2c3nnnn3CCN2Cc2cccc(Br)c2)cc1 (single isomer, unassigned) [Compound 96-b, 7-(3-Bromo-benzyl)-8-(4-fluoro-phenyl)-5,6,7,8-tetrahydro-tetrazolo[1,5-a]pyrazine] | 9.9 to 40 |
| COc1ccc(OC)c(CN2CCn3nnnc3C2c2ccc(OC(C)C)cc2)c1 (stereo not shown) [Compound 1, 7-(2,5-Dimethoxy-benzyl)-8-(4-isopropoxy-phenyl)-5,6,7,8-tetrahydro-tetrazolo[1,5-a]pyrazine] | 9.9 to 40 |
| CC(C)Oc1ccc(C2c3nnnn3CCN2CC2CCCCC2)cc1 (stereo not shown) [Compound 3, 7-Cyclohexylmethyl-8-(4-isopropoxy-phenyl)-5,6,7,8-tetra hydro-tetrazolo[1,5-a]pyrazine] | 9.9 to 40 |
| COc1ccc(C2c3nnnn3CCN2Cc2cn(-c3ccccc3)nc2C(C)C)cc1 (stereo not shown) [Compound 5, 7-(3-Isopropyl-1-phenyl-1H-pyrazol-4-ylmethyl)-8-(4-methoxy-phenyl)-5,6,7,8-tetrahydro-tetrazolo[1,5-a]pyrazine] | 9.9 to 40 |
| Brc1cccc(CN2CCn3nnnc3C2c2cccc(Br)c2)c1 (stereo not shown) [Compound 6, 7-(3-Bromo-benzyl)-8-(3-bromo-phenyl)-5,6,7,8-tetrahydro-tetrazolo[1,5-a]pyrazine] | 9.9 to 40 |
| Brc1cccc(C2c3nnnn3CCN2CC2CCCCC2)c1 (stereo not shown) [Compound 9, 8-(3-Bromo-phenyl)-7-cyclohexylmethyl-5,6,7,8-tetrahydro-tetrazolo[1,5-a]pyrazine] | 9.9 to 40 |
| CC(C)c1nn(-c2ccccc2)cc1CN1CCn2nnnc2C1c1ccc(F)cc1 (stereo not shown) [Compound 11, 8-(4-Fluoro-phenyl)-7-(3-isopropyl-1-phenyl-1H-pyrazol-4-ylmethyl)-5,6,7,8-tetrahydro-tetrazolo[1,5-a]pyrazine] | 9.9 to 40 |
| COc1ccc(OC)c(C2c3nnnn3CCN2Cc2cn(-c3ccccc3)nc2C(C)C)c1 (stereo not shown) [Compound 13, 8-(2,5-Dimethoxy-phenyl)-7-(3-isopropyl-1-phenyl-1H-pyrazol-4-ylmethyl)-5,6,7,8-tetrahydro-tetrazolo[1,5-a]pyrazine] | 9.9 to 40 |
| CN(C)c1ccc(C2c3nnnn3CCN2Cc2cc(F)ccc2F)cc1 (stereo not shown) [Compound 16, {4-[7-(2,5-Difluoro-benzyl)-5,6,7,8-tetrahydro-tetrazolo[1,5-a]pyrazin-8-yl]-phenyl}-dimethyl-amine] | 9.9 to 40 |
| CN(C)c1ccc(C2c3nnnn3CCN2CC2CCCCC2)cc1 (stereo not shown) [Compound 19, [4-(7-Cyclohexylmethyl-5,6,7,8-tetrahydro-tetrazolo[1,5-a]pyrazin-8-yl)-phenyl]-dimethyl-amine] | 9.9 to 40 |
| CN(C)c1ccc(C2c3nnnn3CCN2Cc2cccc(F)c2F)cc1 (stereo not shown) [Compound 20, {4-[7-(2,3-Difluoro-benzyl)-5,6,7,8-tetrahydro-tetrazolo[1,5-a]pyrazin-8-yl]-phenyl}-dimethyl-amine] | 9.9 to 40 |
| COc1ccc(CN2CCn3nnnc3C2c2ccccc2F)cc1 (stereo not shown) [Compound 22, 8-(2-Fluoro-phenyl)-7-(4-methoxy-benzyl)-5,6,7,8-tetrahydro-tetrazolo[1,5-a]pyrazine] | 9.9 to 40 |
| Cc1cccc(C2c3nnnn3CCN2Cc2cn(-c3ccccc3)nc2C(C)C)c1 (stereo not shown) [Compound 27, 7-(3-Isopropyl-1-phenyl-1H-pyrazol-4-ylmethyl)-8-m-tolyl-5,6,7,8-tetrahydro-tetrazolo[1,5-a]pyrazine] | 9.9 to 40 |
| CC(C)c1nn(-c2ccccc2)cc1CN1CCn2nnnc2C1c1ccc2c(c1)OCO2 (stereo not shown) [Compound 29, 8-Benzo[1,3]dioxol-5-yl-7-(3-isopropyl-1-phenyl-1H-pyrazol-4-ylmethyl)-5,6,7,8-tetrahydro-tetrazolo[1,5-a]pyrazine] | 9.9 to 40 |
| Fc1ccc(F)c(CN2CCn3nnnc3C2c2cc(F)ccc2F)c1 (stereo not shown) [Compound 32, 7-(2,5-Difluoro-benzyl)-8-(2,5-difluoro-phenyl)-5,6,7,8-tetrahydro-tetrazolo[1,5-a]pyrazine] | 9.9 to 40 |
| Fc1ccc(F)c(C2c3nnnn3CCN2Cc2cccc(F)c2F)c1 (stereo not shown) [Compound 35, 7-(2,3-Difluoro-benzyl)-8-(2,5-difluoro-phenyl)-5,6,7,8-tetrahydro-tetrazolo[1,5-a]pyrazine] | 9.9 to 40 |

| Compound | IC50 [µM] |
| --- | --- |
| CCOc1ccc(C2c3nnnn3CCN2Cc2cn(-c3ccccc3)nc2C(C)C)cc1 (stereo not shown) [Compound 43, 8-(4-Ethoxy-phenyl)-7-(3-isopropyl-1-phenyl-1H-pyrazol-4-ylmethyl)-5,6,7,8-tetrahydro-tetrazolo[1,5-a]pyrazine] | 9.9 to 40 |
| CCOc1ccc(C2c3nnnn3CCN2CC2CCCCC2)cc1 (stereo not shown) [Compound 44, 7-Cyclohexylmethyl-8-(4-ethoxy-phenyl)-5,6,7,8-tetrahydro-tetrazolo[1,5-a]pyrazine] | 9.9 to 40 |
| CCOc1ccc(C2c3nnnn3CCN2Cc2cccc(F)c2F)cc1 (stereo not shown) [Compound 45, 7-(2,3-Difluoro-benzyl)-8-(4-ethoxy-phenyl)-5,6,7,8-tetrahydro-tetrazolo[1,5-a]pyrazine] | 9.9 to 40 |
| c1csc(CN2CCn3nnnc3C2c2cccs2)c1 (stereo not shown) [Compound 47, 8-Thiophen-2-yl-7-thiophen-2-ylmethyl-5,6,7,8-tetrahydro-tetrazolo[1,5-a]pyrazine] | 9.9 to 40 |
| Cc1cccc(CN2CCn3nnnc3C2c2cn(-c3ccccc3)nc2C(C)C)c1 (stereo not shown) [Compound 57, 8-(3-Isopropyl-1-phenyl-1H-pyrazol-4-yl)-7-(3-methyl-benzyl)-5,6,7,8-tetrahydro-tetrazolo[1,5-a]pyrazine] | 9.9 to 40 |
| CC(C)c1nn(-c2ccccc2)cc1CN1CCn2nnnc2C1c1cn(-c2ccccc2)nc1C(C)C (stereo not shown) [Compound 62, 8-(3-Isopropyl-1-phenyl-1H-pyrazol-4-yl)-7-(3-isopropyl-1-phenyl-1H-pyrazol-4-ylmethyl)-5,6,7,8-tetrahydro-tetrazolo[1,5-a]pyrazine] | 9.9 to 40 |
| CC(C)Oc1ccc(CN2CCn3nnnc3C2C2CCCCC2)cc1 (stereo not shown) [Compound 64, 8-Cyclohexyl-7-(4-isopropoxy-benzyl)-5,6,7,8-tetrahydro-tetrazolo[1,5-a]pyrazine] | 9.9 to 40 |
| CN(C)c1ccc(CN2CCn3nnnc3C2C2CCCCC2)cc1 (stereo not shown) [Compound 66, [4-(8-Cyclohexyl-5,6-dihydro-8H-tetrazolo[1,5-a]pyrazin-7-ylmethyl)-phenyl]-dimethyl-amine] | 9.9 to 40 |
| CCOc1ccc(CN2CCn3nnnc3C2C2CCCCC2)cc1 (stereo not shown) [Compound 67, 8-Cyclohexyl-7-(4-ethoxy-benzyl)-5,6,7,8-tetrahydro-tetrazolo[1,5-a]pyrazine] | 9.9 to 40 |
| C1CCC(CN2CCn3nnnc3C2C2CCCCC2)CC1 (stereo not shown) [Compound 69, 8-Cyclohexyl-7-cyclohexylmethyl-5,6,7,8-tetrahydro-tetrazolo[1,5-a]pyrazine] | 9.9 to 40 |
| Fc1ccc(F)c(CN2CCn3nnnc3C2c2cccc(F)c2F)c1 (stereo not shown) [Compound 74, 7-(2,5-Difluoro-benzyl)-8-(2,3-difluoro-phenyl)-5,6,7,8-tetrahydro-tetrazolo[1,5-a]pyrazine] | 9.9 to 40 |
| Fc1cccc(CN2CCn3nnnc3C2c2cccc(F)c2F)c1F (stereo not shown) [Compound 79, 7-(2,3-Difluoro-benzyl)-8-(2,3-difluoro-phenyl)-5,6,7,8-tetrahydro-tetrazolo[1,5-a]pyrazine] | 9.9 to 40 |
| O=C(c1cccc(Br)c1)N1CCn2nnnc2C1c1cccc(F)c1 (stereo not shown) [Compound 82, (3-Bromo-phenyl)-[8-(3-fluoro-phenyl)-5,6-dihydro-8H-tetrazolo[1,5-a]pyrazin-7-yl]-methanone] | 9.9 to 40 |
| Cn1ccc(CN2CCn3nnnc3C2c2ccc(F)cc2)n1 (stereo not shown) [Compound 85, 8-(4-Fluoro-phenyl)-7-(1-methyl-1H-pyrazol-3-ylmethyl)-5,6,7,8-tetrahydro-tetrazolo[1,5-a]pyrazine] | 9.9 to 40 |
| Cc1cccc(CN2CCn3nnnc3C2c2ccccn2)c1 (stereo not shown) [Compound 86, 7-(3-Methyl-benzyl)-8-pyridin-2-yl-5,6,7,8-tetrahydro-tetrazolo[1,5-a]pyrazine] | 9.9 to 40 |
| Cc1cccc(CN2CCn3nnnc3C2c2ccncc2)c1 (stereo not shown) [Compound 87, 7-(3-Methyl-benzyl)-8-pyridin-4-yl-5,6,7,8-tetrahydro-tetrazolo[1,5-a]pyrazine] | 9.9 to 40 |
| COc1ccc(OC)c(C2c3nnnn3CCN2Cc2cccc(F)c2F)c1 (stereo not shown) [Compound 151, 7-(2,3-Difluoro-benzyl)-8-(2,5-dimethoxy-phenyl)-5,6,7,8-tetrahydro-tetrazolo[1,5-a]pyrazine] | 9.9 to 40 |
| CC(C)c1nn(-c2ccccc2)cc1C1c2nnnn2CCN1Cc1ccn[nH]1 (stereo not shown) [Compound 153, 8-(3-Isopropyl-1-phenyl-1H-pyrazol-4-yl)-7-(2H-pyrazol-3-ylmethyl)-5,6,7,8-tetrahydro-tetrazolo[1,5-a]pyrazine] | 9.9 to 40 |
